# Key:
# [1] = system: subchronic MPTP mouse model; assay: Subchronic MPTP mouse model, striatal neurotransmitters by HPLC-EC (Example 2); type: in vivo; details: for protection against subchronic MPTP-induced depletion of striatal dopac levels / protection against subchronic MPTP-induced depletion of striatal dopamine levels: MPTP 20 mg/kg i.p. 5 days
# Experimental: The triphenylphosphonium-conjugated apocynin analogue, Mito-apocynin, acts as a potent mitochondrial targeted antioxidant (MTA). The nigrostriative dopaminergic neurons undergo destruction in a slow and progressive manner in idiopathic PD. In order to mimic this condition in a preclinical mouse model, a subchronic MPTP mouse model was developed. The mouse model used here was similar to that used in Example 3 below. Mice were treated with Mito-apocynin (3 mg/kg, oral gavage) for 1 day followed by subchronic MPTP (20 mg/kg, i.p.) administration for 5 days. Animals were sacrificed 7 days after the last dose of MPTP (Mito-apocynin was administered during the 7 days). Striatal neurotransmitters (dopamine, dopac) were analyzed by HPLC-EC. Similar experiments were performed with apocynin (20 mg/kg, oral gavage; lower doses were also tested but not effective).
# IL-10 = assay: LPS-induced IL-10 release in primary microglia, LUMINEX immunoassay; type: cell-based, mouse; details: apocynin 100 μM, LPS 24 hr
# Experimental: (§1) Primary microglia were obtained from 1-2 day old C57/b16 mouse pups. Upon collection, whole brains were kept in ice-cold DMEM-F12 medium containing 10% FBS, 1× sodium pyruvate, 1× NEAAs, 100 units pen/strep, and Q. After collection, the brains were placed in 0.25% trypsin-EDTA and incubated at 37° C., with gentle shaking every 5-10 min. After 30 min, the trypsin was removed, and the brains are washed in warmed medium twice. After washing, medium was added to the brains, and the brains were homogenized using gentle pipetting, starting with a 25 ml pipette and moving to smaller pipette tips as the brains were broken up. When the brains were sufficiently homogenized to a single-cell suspension, they were filtered with a 70 μm nylon filter, which allowed microglia and astrocytes to be collected. The resultant cell suspension was plated in T-75 flasks and allowed to grow for 12-14 days at 37° C., 5% CO2. […]
# (§2) Cytokine levels of BV2 and microglial cells treated with diapocynin were determined by LUMINEX® multiplex immunoassay. […]
# (§3) Cytokine standards and controls were adjusted to 40 μl volume and the LUMINEX® Samples were run on a LUMINEX® 200 Total System and analyzed with Multiplex Analysis—LUMINEX® Software (Invitrogen, Carlsbad, Calif.).
# G93A mice = details: apocynin 300 mg/kg; cited from earlier work
# IL-1β = assay: LPS-induced IL-1β release in primary microglia, LUMINEX immunoassay; type: cell-based, mouse; details: apocynin 100 μM, LPS 24 hr
# Experimental: as §1, §2, §3
# BV2 microglial cells = assay: LPS-induced iNOS activation (nitrite, Griess reagent) in BV2 microglial cells; type: cell-based, mouse; details: 30 min pretreatment, Griess reagent
# Experimental: Two cell models of neuroinflammation were used to evaluate the anti-neuroinflammatory property of diapocynin including the mouse BV2 microglial cell line, as well as primary microglia isolated from mouse brains. BV2 cells were obtained from the American Tissue Culture Collection. BV2 cells were maintained in RPMI containing 10% FBS and 100 units of pen/strep at 37° C. and 5% CO2. For treatments, RPMI containing 2% FBS and 100 units of pen/strep was used.
# Inducible nitric oxide synthase (iNOS or NOS2) activation was assessed by measuring nitrite levels using Griess reagent in a 96-well format (70-72). Each well contained 40,000 BV2 cells or 100,000 primary microglia. BV2 cells were cultured in 150 μl of RPMI containing 10% FBS and pen/strep, and the primary microglia were cultured in DMEM-F12 containing 10% FBS, pen/strep, sodium pyruvate (S/P), Q, and NEAAs. One day after culturing, cells were replaced with 150 μl of their respective complete media containing only 2% FBS. Both cell types were pretreated with diapocynin (10 μM) and apocynin (100 μM) for 30 min before LPS stimulation (1 μg/ml LPS for BV2 cells and 100 ng/ml for primary microglia), and the plates were incubated at 37° C. After 24 hr at 37° C., 100 μl of supernatant were removed and placed into a new 96 well plate, to which 100 μl of Griess reagent were added. The plate was shaken on a plate shaker for 10 min before being read in a plate reader at 540 nm.
# This example generally followed the cell culture, treatment, and analysis steps of Example 4 above.
# Diapocynin diacetate (diapodiacetate or diapo diace) suppresses LPS-induced NOS-2 in BV2 microglial cells (FIG. 21). BV-2 cells were plated in 96 well plates, 40,000 cells per well, and treated in 150 μl of RPMI containing 2% heat inactivated FBS and penicillin/streptomycin. Diapo diacetate was used on the cells as a 30 min pretreatment, then LPS (1 μg/ml) was added. All treatments were allowed to incubate at 37° C. for 24 hr, starting from the addition of LPS. One hundred microliter aliquots of supernatant from each well were combined with 100 μl of Griess reagent (Sigma) in a 96-well plate and allowed to shake for 10 minutes before being read on the plate reader. The percent nitrite level for the treatments compared to the control was graphed.
# IL-12 = assay: LPS-induced IL-12 release in primary microglia, LUMINEX immunoassay; type: cell-based, mouse; details: apocynin 100 μM, LPS 24 hr
# Experimental: as §1, §2, §3
# TNF-α = assay: LPS-induced TNF-α release in primary microglia, LUMINEX immunoassay; type: cell-based, mouse; details: apocynin 100 μM, LPS 24 hr
# Experimental: as §1, §2, §3
# [2] = Mito-apocynin 3 mg/kg oral gavage, sacrifice 7 days after last MPTP dose
compound,measurement,setting,value
COc1cc(C(=O)NCC[P+](c2ccccc2)(c2ccccc2)c2ccccc2)ccc1O.[Br-] [Mito-apocynin],protection against subchronic MPTP-induced depletion of striatal dopac levels,[1]; [2],almost completely protected
same,protection against subchronic MPTP-induced depletion of striatal dopamine levels,[1]; [2],almost completely protected
"COc1cc(C(C)=O)ccc1O [apocynin, Apocynin, reference compound]",blocking LPS-induced release of IL-10,IL-10,also effective
same,lifespan of G93A mice,G93A mice,markedly enhanced
same,blocking LPS-induced release of IL-1β,IL-1β,also effective
same,EC50,"BV2 microglial cells; Mus musculus, BV-2 cells, LPS 1 μg/ml, non-linear regression of dose response curve, read-out: EC50, block of LPS-induced iNOS activation (nitrite level)",61.3 µM
same,blocking LPS-induced release of IL-12,IL-12,also effective
same,protection against subchronic MPTP-induced depletion of striatal dopac levels,[1]; apocynin 20 mg/kg oral gavage,not
same,protection against subchronic MPTP-induced depletion of striatal dopamine levels,[1]; apocynin 20 mg/kg oral gavage,not
same,"effect on striatal neurotransmitters (dopamine, dopac)","[1]; apocynin at doses lower than 20 mg/kg, oral gavage",not effective
same,blocking LPS-induced release of TNF-α,TNF-α,also effective
Diapocynin diacetate,LPS-induced NOS-2 (percent nitrite level compared to control),"BV2 microglial cells; BV2 cells, LPS 1 μg/ml 24 hr",suppresses
